Measured values reported in paper PMC10341549, “Inhibitory Investigations of Acyl-CoA Derivatives against Human Lipoxygenase Isozymes” (International Journal of Molecular Sciences, 2023).
Entries after “also recorded” stand apart in the source; their conditions may differ.

Assays:
h5-LOX = molecular target: T1, h5-LOX (Homo sapiens, UniProt P09917, C241A/C562A/D45S/DEL41-43/F15H/K654E/K655N/K656L/L77S/N44G/W14E/W76G); experiment: IC50 determination against h5-LOX; assay type: biochemical; conditions: 10 μM AA, 50 mM HEPES pH 7.5, 200 µM ATP, ammonium-sulfate precipitate enzyme, 22 °C
T1 sequence (P09917 with tags, fused parts or gaps W14E/F15H/DEL41-43/N44G/D45S/W76G/L77S/C241A/C562A/K654E/K655N/K656L): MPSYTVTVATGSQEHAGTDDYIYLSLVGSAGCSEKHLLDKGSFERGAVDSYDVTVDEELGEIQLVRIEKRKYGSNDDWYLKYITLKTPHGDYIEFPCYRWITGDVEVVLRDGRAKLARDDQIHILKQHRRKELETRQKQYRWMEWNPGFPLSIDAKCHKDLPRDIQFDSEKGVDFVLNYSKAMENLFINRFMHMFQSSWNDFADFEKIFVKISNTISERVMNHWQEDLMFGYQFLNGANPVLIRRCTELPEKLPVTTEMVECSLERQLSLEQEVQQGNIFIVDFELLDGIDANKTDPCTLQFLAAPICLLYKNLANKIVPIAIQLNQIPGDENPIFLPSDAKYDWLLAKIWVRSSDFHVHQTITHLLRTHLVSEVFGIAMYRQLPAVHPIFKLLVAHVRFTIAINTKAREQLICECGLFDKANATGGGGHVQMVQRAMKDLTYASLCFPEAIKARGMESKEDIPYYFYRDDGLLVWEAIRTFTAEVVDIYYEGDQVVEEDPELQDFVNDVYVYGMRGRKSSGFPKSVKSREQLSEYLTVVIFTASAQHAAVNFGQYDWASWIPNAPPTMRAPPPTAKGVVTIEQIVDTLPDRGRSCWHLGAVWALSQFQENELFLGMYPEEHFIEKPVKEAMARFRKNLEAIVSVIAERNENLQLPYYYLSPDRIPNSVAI
Procedure: Overexpression and purification of his-tagged wild-type h12-LOX (Uniprot entry P18054), h15-LOX-1 (Uniprot entry P16050), and h15-LOX-2 (Uniprot entry O15296) were performed using nickel-affinity chromatography. The purity of h12-LOX, h15-LOX-1, and h15-LOX-2 was assessed using SDS gel as greater than 85%, and metal content was assessed with a Finnigan inductively coupled plasma mass spectrometer (ICP-MS, Thermo Fischer Scientific, San Jose, USA) via comparison with iron standard solution. Cobalt-EDTA was used as an internal standard. WT h5-LOX (UniProt entry P09917) was expressed in Rosetta 2 cells (Novagen) transformed with the pET14b-Stable-5-LOX plasmid (a gift from Marcia Newcomer of Louisiana State University) and grown in Terrific Broth containing 34 μg/mL chloramphenicol and 100 μg/mL ampicillin at 37 °C for 3.5 h, then placed at 20 °C for an additional 26 h. Cells were pelleted and resuspended in 50 mM Tris (pH 8.0), 500 mM NaCl, 20 mM imidazole with 1 μM pepstatin, 100 μM PMSF, and DNaseI (Sigma, Kanagawa, Japan). The cells were lysed in a French pressure cell and centrifuged at 40,000× g for 20 min at 4 °C. Saturated ammonium sulfate was added to achieve a final solution of 10% and inverted several times. The lysate was centrifuged at 40,000× g for 10 min at 4 °C. The pellet was discarded, and the supernatant was increased to a final concentration of 50% ammonium sulfate. The supernatant was rotated for 10 min at 4 °C then centrifuged at 40,000× g for 10 min at 4 °C. The pellet was split into 150 mg aliquots. The WT h5-LOX used for the kinetics in this work was not purified due to a dramatic loss in activity and was therefore prepared as an ammonium-sulfate precipitate.
IC50 values for each acyl-CoA were measured against h5-LOX, h12-LOX, h15-LOX-1, and h15-LOX-2. […] The fastest rates over 15 s intervals were recorded. […]

h15-LOX-1 = molecular target: T2, h15-LOX-1 (Homo sapiens, UniProt P16050); experiment: Substrate activity and kinetic parameters with h15-LOX-1; assay type: biochemical; conditions: acyl-CoAs tested at 70 µM, change in absorbance at 234 nm
T2 construct: His tag; made in house
T2 sequence (P16050 1-662): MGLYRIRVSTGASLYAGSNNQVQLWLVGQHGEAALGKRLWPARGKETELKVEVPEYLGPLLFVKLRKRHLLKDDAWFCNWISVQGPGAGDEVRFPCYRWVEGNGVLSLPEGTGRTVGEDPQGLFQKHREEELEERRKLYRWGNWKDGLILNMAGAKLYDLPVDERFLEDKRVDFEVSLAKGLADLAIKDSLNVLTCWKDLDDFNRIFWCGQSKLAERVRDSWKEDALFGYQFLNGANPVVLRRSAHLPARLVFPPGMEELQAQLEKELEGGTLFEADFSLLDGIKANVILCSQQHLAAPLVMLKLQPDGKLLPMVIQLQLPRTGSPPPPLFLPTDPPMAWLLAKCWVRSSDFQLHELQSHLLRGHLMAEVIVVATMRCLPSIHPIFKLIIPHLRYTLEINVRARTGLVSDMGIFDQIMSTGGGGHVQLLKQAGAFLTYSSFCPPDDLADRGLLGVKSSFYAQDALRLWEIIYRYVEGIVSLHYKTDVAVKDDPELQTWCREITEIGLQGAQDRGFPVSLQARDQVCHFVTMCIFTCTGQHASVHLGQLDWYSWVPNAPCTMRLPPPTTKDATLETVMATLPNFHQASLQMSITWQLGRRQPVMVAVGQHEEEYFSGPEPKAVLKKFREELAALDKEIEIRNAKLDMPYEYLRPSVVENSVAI
Procedure: Considering that some of these acyl-CoAs could potentially be substrates for LOX isozymes, each acyl-CoA was tested at 70 µM against each LOX isozyme to establish the possibility of catalysis.
The same buffer as used to determine IC50 values for h5-LOX was used for product determination. Turnover was monitored by absorbance at 234 nm.

Row | IC50 (h5-LOX) [µM] | Substrate activity with h15-LOX-1 (h15-LOX-1) | Compound | Substrate activity with h15-LOX-1 (h15-LOX-1; listed as linoleoyl-CoA (18:2))
1 | > 200 | – | CC/C=C\C/C=C\C/C=C\C/C=C\C/C=C\C/C=C\CCC(=O)SCCNC(=O)CCNC(=O)C(O)C(C)(C)COP(=O)(O)OP(=O)(O)OC[C@H]1O[C@@H](n2cnc3c(N)ncnc32)[C@H](O)[C@@H]1OP(=O)(O)O (some centres unmarked) [Docosahexaenoyl CoA (22:6), docosahexaenoyl-coenzyme A (22:6)] | –
2 | > 50 | (Substrate) | CCCCC/C=C\C/C=C\CCCCCCCC(=O)SCCNC(=O)CCNC(=O)[C@H](O)C(C)(C)COP(=O)(O)OP(=O)(O)OC[C@H]1O[C@@H](n2cnc3c(N)ncnc32)[C@H](O)[C@@H]1OP(=O)(O)O [Linoleoyl-CoA (18:2), linoleoyl-CoA] | substrates; also recorded: rapid substrate
3 | > 200 | – | CCCCC/C=C\C/C=C\C/C=C\CCCCC(=O)SCCNC(=O)CCNC(=O)[C@H](O)C(C)(C)COP(=O)(O)OP(=O)(O)OC[C@H]1O[C@@H](n2cnc3c(N)ncnc32)[C@H](O)[C@@H]1OP(=O)(O)O [ɣ-Linolenoyl-CoA (18:3), ɣ-linolenoyl-coenzyme A (18:3)] | –
